Test results published in patent US9434727B2, “Substituted 4-phenylpiperidines, their preparation and use” (THE TRUSTEES OF COLUMBIA UNIVERSITY IN THE CITY OF NEW YORK, priority 2014, dated 2016).

Legend:
RBP4 = RBP4 (Homo sapiens (Human), UniProt P02753); assay: Scintillation proximity (SPA) RBP4 binding assay; details: 10 nM 3H-Retinol, 50 nM biotinylated RBP4
Method: Scintillation Proximity RBP4 Binding Assay
Untagged human RBP4 purified from urine of tubular proteinuria patients was purchased from Fitzgerald Industries International. It was biotinylated using the EZ-Link Sulfo-NHS-LC-Biotinylation kit from Pierce following the manufacturer's recommendations. Binding experiments were performed in 96-well plates (OptiPlate, PerkinElmer) in a final assay volume of 100 μl per well in SPA buffer (IX PBS, pH 7.4, 1 mM EDTA, 0.1% BSA, 0.5% CHAPS). The reaction mix contained 10 nM ^3H-Retinol (48.7 Ci/mmol; PerkinElmer), 0.3 mg/well Streptavidin-PVT beads, 50 nM biotinylated RBP4 and a test compound. Nonspecific binding was determined in the presence of 20 μM of unlabeled retinol. The reaction mix was assembled in the dark under dim red light. The plates were sealed with clear tape (TopSeal-A: 96-well microplate, PerkinElmer), wrapped in the aluminum foil, and allowed to equilibrate 6 hours at room temperature followed by overnight incubation at +4° C. Radiocounts were measured using a TopCount NXT counter (Packard Instrument Company).

RBP4-TTR interaction = RBP4-TTR interaction (Homo sapiens (Human), UniProt P02753); assay: TR-FRET (HTRF) assay for retinol-induced RBP4-TTR interaction; assay type: biochemical; details: in the presence of 1 μM retinol; read-out: HTRF assay for antagonists of RBP4-TTR interaction: IC50
Description: TR-FRET assay for retinol-induced RBP4-TTR interaction Binding of a desired RBP4 antagonist displaces retinol and induces hindrance for RBP4-TTR interaction resulting in the decreased FRET signal (FIG. 7). Bacterially expressed MBP-RBP4 and untagged TTR were used in this assay. […] Following cell lysis, recombinant RBP4 was purified from the soluble fraction using the ACTA FPLC system (GE Healthcare) equipped with the 5-ml the MBP Trap HP column. Human untagged TTR was purchased from Calbiochem. Untagged TTR was labeled directly with Eu^3+ Cryptate-NHS using the HTRF Cryptate Labeling kit from CisBio following the manufacturer's recommendations. HTRF assay was performed in white low volume 384 well plates (Greiner-Bio) in a final assay volume of 16 μl per well. The reaction buffer contained 10 mM Tris-HCl pH 7.5, 1 mM DTT, 0.05% NP-40, 0.05% Prionex, 6% glycerol, and 400 mM KF. […] Titration of test compounds in this assay was conducted in the presence of 1 μM retinol. All reactions were assembled in the dark under dim red light and incubated overnight at +4° C. wrapped in aluminum foil. TR-FRET signal was measured in the SpectraMax M5e Multimode Plate Reader (Molecular Device). […] The TR-FRET signal was expressed as the ratio of fluorescence intensity: Flu665/Flu620×10,000.

Compound | IC50 (RBP4) [nM] | IC50 (RBP4-TTR interaction) [nM]
O=C(c1n[nH]c2c1CN(CC(F)(F)F)C2)N1CCC(c2ccc(F)c(F)c2C(F)(F)F)CC1 [Compound 107] | 23.4 | 77
N#Cc1ccc2nnc(C(=O)N3CCC(c4c(F)cccc4C(F)(F)F)CC3)n2c1 [Compound 157, 3-(4-(2-fluoro-6-(trifluoromethyl)phenyl)piperidine-1-carbonyl)-[1,2,4]triazolo[4,3-a]pyridine-6-carbonitrile] | 5.84 | 92
COCCN1Cc2[nH]nc(C(=O)N3CCC(c4ccc(F)c(F)c4C(F)(F)F)CC3)c2C1 [Compound 109, (4-(3,4-difluoro-2(trifluoromethyl)phenyl)piperidin-1-yl)(5-(2-methoxyethyl)-1,4,5,6-tetrahydropyrrolo[3,4-c]pyrazol-3-yl)methanone] | 14.9 | 41.9
CCN1CCc2c(C(=O)N3CCC(c4ccc(F)c(F)c4C(F)(F)F)CC3)n[nH]c2C1 [Compound 111, (4-(3,4-Difluoro-2-(trifluoromethyl)phenyl)piperidin-1-yl)(6-ethyl-4,5,6,7-tetrahydro-1H-pyrazolo[3,4-c]pyridin-3-yl)methanone] | 6.89 | 22.1
O=C(c1n[nH]c2c1CCN(CC1CC1)C2)N1CCC(c2cccc(F)c2Cl)CC1 [Compound 146, (4-(2-chloro-3-(fluorophenyl)piperidin-1-yl)(6-cyclopropylmethyl)-4,5,6,7-tetrahydro-1H-pyrazolo[3,4-c]pyridine-3-yl)methanone] | 15.9 | 36.5
CS(=O)(=O)N1CCc2[nH]nc(C(=O)N3CCC(c4cccc(F)c4Cl)CC3)c2C1 [Compound 151] | 10.3 | 67.7
O=C(c1cccnc1)N1Cc2[nH]nc(C(=O)N3CCC(c4ccc(F)c(F)c4C(F)(F)F)CC3)c2C1 [Compound 104, (4-(3,4-difluoro-2-(trifluoromethyl)phenyl)piperidin-1-yl)(5-nicotinoyl-1,4,5,6-tetrahydropyrrolo[3,4-c]pyrazol-3-yl)methanone] | 18.9 | 21.8
CC(=O)N1CCc2c(C(=O)N3CCC(c4cccc(F)c4Cl)CC3)n[nH]c2C1 [Compound 150, 1-(3-(4-(2-chloro-3-fluorophenyl)piperidine-1-carbonyl)-4,5-dihydro-1H-pyrazolo[3,4-c]pyridin-6(7H)-yl)ethanone] | 4.84 | 23.7
N#Cc1ccc2nnc(C(=O)N3CCC(c4cccc(F)c4Cl)CC3)n2c1 [Compound 152, 3-(4-(2-chloro-3-fluorophenyl)piperidine-1-carbonyl)-[1,2,4]triazolo[4,3-a]pyridine-6-carbonitrile] | 3.1 | 27.8
COC(=O)N1CCc2[nH]nc(C(=O)N3CCC(c4cc(F)cc(F)c4C(F)(F)F)CC3)c2C1 [Compound 138, Methyl 3-(4-(3,5-difluoro-2-(trifluoro-methyl)phenyl)piperidine-1-carbonyl)-6,7-dihydro-1H-pyrazolo[4,3-c]pyridine-5(4H)-carboxylate] | 10.1 | 24.4
CS(=O)(=O)N1CCc2[nH]nc(C(=O)N3CCC(c4cc(C(F)(F)F)cc(C(F)(F)F)c4)CC3)c2C1 [Compound 154, (4-(3,5-bis(trifluoromethyl)phenyl)piperidin-1-yl)(5-(methylsulfonyl)-4,5,6,7-tetrahydro-1H-pyrazolo[4,3-c]pyridin-3-yl)methanone] | 150 | 385
CNC(=O)N1Cc2[nH]nc(C(=O)N3CCC(c4ccc(F)c(F)c4C(F)(F)F)CC3)c2C1 [Compound 100, 3-(4-(3,4-difluoro-2-(trifluoromethyl)phenyl)piperidine-1-carbonyl)-N-methyl-4,6-dihydropyrrolo[3,4-c]pyrazole-5(1H)-carboxamide] | 19.6 | 30.3
CC(=O)N1CCc2c(C(=O)N3CCC(c4cccc(F)c4C(F)(F)F)CC3)n[nH]c2C1 [Compound 63, 1-(3-(4-(3-Fluoro-2-(trifluoromethyl)phenyl)piperidine-1-carbonyl)-4,5-dihydro-1H-pyrazolo[3,4-c]pyridin-6(7H)-yl)ethanone] | 4.46 | 16
CCN1Cc2[nH]nc(C(=O)N3CCC(c4ccc(F)c(F)c4C(F)(F)F)CC3)c2C1 [Compound 96, (4-(3,4-difluoro-2(trifluoromethyl)phenyl)piperidin-1-yl)(5-ethyl-1,4,5,6-tetrahydropyrrolo[3,4-c]pyrazol-3-yl)methanone] | 12.7 | 26.5
O=C(c1n[nH]c2c1CN(C1COC1)CC2)N1CCC(c2cccc(F)c2C(F)(F)F)CC1 [Compound 74] | 11.6 | 28.3
N#Cc1ccc2nnc(C(=O)N3CCC(c4cc(F)ccc4Cl)CC3)n2c1 [Compound 145, 3-(4-(2-Chloro-5-fluorophenyl)piperidine-1-carbonyl)-[1,2,4]triazolo[4,3-a]pyridine-6-carbonitrile] | 7.57 | 67
O=C(c1n[nH]c2c1CN(CCC(F)(F)F)CC2)N1CCC(c2ccc(F)c(F)c2C(F)(F)F)CC1 [Compound 93, (4-(3,4-difluoro-2-(trifluoromethyl)phenyl)piperidin-1-yl)(5-(3,3,3-trifluoropropyl)-4,5,6,7-tetrahydro-1H-pyrazolo[4,3-c]pyridin-3-yl)methanone] | 8 | 33.6
O=C(c1n[nH]c2c1CCN(CCC(F)(F)F)C2)N1CCC(c2ccc(F)c(F)c2C(F)(F)F)CC1 [Compound 119, (4-(3,4-Difluoro-2(trifluoromethyl)phenyl)piperidin-1-yl)(6-(3,3,3-trifluoropropyl)-4,5,6,7-tetrahydro-1H-pyrazolo[3,4-c]pyridin-3-yl)methanone] | 10.7 | 39.4
CC(=O)N1CCc2c(C(=O)N3CCC(c4cc(F)ccc4Cl)CC3)n[nH]c2C1 [Compound 143, 1-(3-(4-(2-chloro-5-fluorophenyl)piperidine-1-carbonyl)-4,5-dihydro-1H-pyrazolo[3,4-c]pyridin-6(7H)-yl)ethanone] | 8.83 | 52.3
O=C(c1n[nH]c2c1CN(C1COC1)C2)N1CCC(c2ccc(F)c(F)c2C(F)(F)F)CC1 [Compound 98, (4-(3,4-difluoro-2-(trifluoromethyl)phenyl)piperidin-1-yl)(5-(oxetan-3-yl)-1,4,5,6-tetrahydropyrrolo[3,4-c]pyrazol-3-yl) methanone] | 11.8 | 74.1
O=C(c1n[nH]c2c1CN(C1COC1)CC2)N1CCC(c2ccc(F)c(F)c2C(F)(F)F)CC1 [Compound 89, (4-(3,4-difluoro-2-(trifluoromethyl)phenyl)piperidin-1-yl)(5-(oxetan-3-yl)-4,5,6,7-tetrahydro-1H-pyrazolo[4,3-c]pyridin-3-yl)methanone] | 8.84 | 33
CC(=O)N1CCc2c(C(=O)N3CCC(c4cc(C(F)(F)F)cc(C(F)(F)F)c4)CC3)n[nH]c2C1 [Compound 153, 1-(3-(4-(3,5-bis(trifluoromethyl)phenyl)piperidine-1-carbonyl)-4,5-dihydro-1H-pyrazolo[3,4-c]pyridin-6(7H)-yl)ethanone] | 149 | 833
O=C(c1n[nH]c2c1CN(C1COC1)CC2)N1CCC(c2cccc(F)c2Cl)CC1 [Compound 165, (4-(2-Chloro-3-fluorophenyl)piperidin-1-yl)(5-(oxetan-3-yl)-4,5,6,7-tetrahydro-1H-pyrazolo[4,3-c]pyridin-3-yl)methanone] | 15.6 | 64.8
CNC(=O)N1CCc2[nH]nc(C(=O)N3CCC(c4ccc(F)c(F)c4C(F)(F)F)CC3)c2C1 [Compound 92, 3-(4-(3,4-difluoro-2-(trifluoromethyl)phenyl)piperidine-1-carbonyl)-N-methyl-6,7-dihydro-1H-pyrazolo[4,3-c]pyridine-5(4H)-carboxamide] | 10.2 | 76.6
COCCN1CCc2[nH]nc(C(=O)N3CCC(c4ccc(F)c(F)c4C(F)(F)F)CC3)c2C1 [Compound 94, (4-(3,4-difluoro-2-(trifluoromethyl)phenyl)piperidin-1-yl)(5-(2-methoxyethyl)-4,5,6,7-tetrahydro-1H-pyrazolo[4,3-c]pyridin-3-yl)methanone] | 6.96 | 49.9
